Where “and” joins values, the source holds several entries; their conditions need not be identical. Equal values may be shown once.
O=C(C(F)(F)C(F)(F)F)C(F)(C(F)(F)F)C(F)(F)F [dodecafluoro-2-methylpentan-3-one]
Conditions | thermal conductivity
387.99 K, 395 kPa, Gas, hot wire | 0.0199 W/m/K
388 K, 395 kPa, Gas, hot wire | 0.01971 W/m/K
388.06 K, 258 kPa, Gas, hot wire | 0.01842 W/m/K
388.07 K, 128 kPa, Gas, hot wire | 0.01819 W/m/K and 0.01818 W/m/K
388.08 K, 257 kPa, Gas, hot wire | 0.01826 W/m/K
388.1 K, 26 kPa, Gas, hot wire | 0.01771 W/m/K and 0.01756 W/m/K
388.1 K, 394 kPa, Gas, hot wire | 0.01994 W/m/K
388.1 K, 395 kPa, Gas, hot wire | 0.01983 W/m/K
388.18 K, 257 kPa, Gas, hot wire | 0.01851 W/m/K
388.19 K, 128 kPa, Gas, hot wire | 0.01818 W/m/K
388.19 K, 256 kPa, Gas, hot wire | 0.0184 W/m/K
388.2 K, 128 kPa, Gas, hot wire | 0.01804 W/m/K
388.2 K, 395 kPa, Gas, hot wire | 0.01983 W/m/K
388.22 K, 394 kPa, Gas, hot wire | 0.01966 W/m/K
388.23 K, 26 kPa, Gas, hot wire | 0.01766 W/m/K and 0.0176 W/m/K
388.3 K, 256 kPa, Gas, hot wire | 0.01853 W/m/K
388.31 K, 256 kPa, Gas, hot wire | 0.01853 W/m/K
388.31 K, 396 kPa, Gas, hot wire | 0.01994 W/m/K
388.32 K, 395 kPa, Gas, hot wire | 0.01985 W/m/K
388.33 K, 127 kPa, Gas, hot wire | 0.01792 W/m/K
388.33 K, 128 kPa, Gas, hot wire | 0.01804 W/m/K
388.36 K, 26 kPa, Gas, hot wire | 0.0176 W/m/K
388.37 K, 26 kPa, Gas, hot wire | 0.01755 W/m/K
388.43 K, 254 kPa, Gas, hot wire | 0.01861 W/m/K
388.43 K, 255 kPa, Gas, hot wire | 0.01863 W/m/K
388.43 K, 396 kPa, Gas, hot wire | 0.01991 W/m/K
388.45 K, 397 kPa, Gas, hot wire | 0.01966 W/m/K
388.47 K, 127 kPa, Gas, hot wire | 0.01796 W/m/K
388.48 K, 127 kPa, Gas, hot wire | 0.0179 W/m/K
388.49 K, 516 kPa, Gas, transient hot wire | 0.01836 W/m/K
388.5 K, 26 kPa, Gas, hot wire | 0.01759 W/m/K
388.51 K, 26 kPa, Gas, hot wire | 0.01751 W/m/K
388.53 K, 395 kPa, Gas, transient hot wire | 0.01832 W/m/K
388.56 K, 254 kPa, Gas, hot wire | 0.01874 W/m/K
388.56 K, 255 kPa, Gas, hot wire | 0.01872 W/m/K
388.62 K, 127 kPa, Gas, hot wire | 0.01791 W/m/K
388.62 K, 257 kPa, Gas, transient hot wire | 0.01852 W/m/K
388.65 K, 26 kPa, Gas, hot wire | 0.01756 W/m/K
388.66 K, 26 kPa, Gas, hot wire | 0.01755 W/m/K
388.67 K, 515 kPa, Gas, transient hot wire | 0.01836 W/m/K
388.68 K, 516 kPa, Gas, transient hot wire | 0.01848 W/m/K
388.72 K, 394 kPa, Gas, transient hot wire | 0.01847 W/m/K
388.73 K, 395 kPa, Gas, transient hot wire | 0.01843 W/m/K
388.77 K, 619 kPa, Gas, transient hot wire | 0.01829 W/m/K
388.79 K, 619 kPa, Gas, transient hot wire | 0.0182 W/m/K
388.81 K, 257 kPa, Gas, transient hot wire | 0.01868 W/m/K
388.82 K, 256 kPa, Gas, transient hot wire | 0.01825 W/m/K
388.87 K, 514 kPa, Gas, transient hot wire | 0.01853 W/m/K
388.93 K, 394 kPa, Gas, transient hot wire | 0.01809 W/m/K and 0.01843 W/m/K
388.98 K, 619 kPa, Gas, transient hot wire | 0.01836 W/m/K and 0.01835 W/m/K
389.04 K, 256 kPa, Gas, transient hot wire | 0.01865 W/m/K
389.05 K, 256 kPa, Gas, transient hot wire | 0.01868 W/m/K
389.08 K, 515 kPa, Gas, transient hot wire | 0.01859 W/m/K
389.15 K, 395 kPa, Gas, transient hot wire | 0.01856 W/m/K
389.19 K, 619 kPa, Gas, transient hot wire | 0.01856 W/m/K and 0.01854 W/m/K
389.26 K, 256 kPa, Gas, transient hot wire | 0.01862 W/m/K
389.27 K, 255 kPa, Gas, transient hot wire | 0.0187 W/m/K
389.29 K, 513 kPa, Gas, transient hot wire | 0.01867 W/m/K
389.29 K, 514 kPa, Gas, transient hot wire | 0.01867 W/m/K
389.3 K, 67954 kPa, Liquid, transient hot wire | 0.07227 W/m/K
389.31 K, 53809 kPa, Liquid, transient hot wire | 0.06794 W/m/K
389.31 K, 53833 kPa, Liquid, transient hot wire | 0.06806 W/m/K
389.31 K, 67979 kPa, Liquid, transient hot wire | 0.0723 W/m/K
389.38 K, 396 kPa, Gas, transient hot wire | 0.01859 W/m/K
389.38 K, 397 kPa, Gas, transient hot wire | 0.01856 W/m/K
389.42 K, 40396 kPa, Liquid, transient hot wire | 0.06362 W/m/K
389.42 K, 40406 kPa, Liquid, transient hot wire | 0.06374 W/m/K
389.43 K, 67897 kPa, Liquid, transient hot wire | 0.07231 W/m/K
389.43 K, 67923 kPa, Liquid, transient hot wire | 0.07209 W/m/K
389.48 K, 29881 kPa, Liquid, transient hot wire | 0.05966 W/m/K
389.5 K, 254 kPa, Gas, transient hot wire | 0.01874 W/m/K
389.5 K, 53787 kPa, Liquid, transient hot wire | 0.06829 W/m/K
389.51 K, 255 kPa, Gas, transient hot wire | 0.01838 W/m/K
389.51 K, 53794 kPa, Liquid, transient hot wire | 0.06804 W/m/K
389.53 K, 21435 kPa, Liquid, transient hot wire | 0.05599 W/m/K
389.54 K, 21442 kPa, Liquid, transient hot wire | 0.05607 W/m/K
389.56 K, 40379 kPa, Liquid, transient hot wire | 0.06355 W/m/K
389.56 K, 40384 kPa, Liquid, transient hot wire | 0.06363 W/m/K
389.57 K, 67853 kPa, Liquid, transient hot wire | 0.07219 W/m/K
389.57 K, 67877 kPa, Liquid, transient hot wire | 0.0722 W/m/K
389.58 K, 14725 kPa, Liquid, transient hot wire | 0.05279 W/m/K
389.58 K, 14726 kPa, Liquid, transient hot wire | 0.05278 W/m/K
389.63 K, 29870 kPa, Liquid, transient hot wire | 0.05967 W/m/K
389.63 K, 29871 kPa, Liquid, transient hot wire | 0.05964 W/m/K
